This is an account of results in publication PMC8634746 (International Journal of Peptide Research and Therapeutics, 2021).

The assay concerns the target S1-ACE2 complex (Severe acute respiratory syndrome coronavirus 2, UniProt P0DTC2). Type of assay: binding, human (ACE2); SARS-CoV-2 (S1). The note with it: 5 μM peptide; preincubation 3 to 60 min.

Peptide text beside a SMILES is read from it.

For `CC(C)C[C@H](NC(=O)[C@H](CC(=O)O)NC(=O)[C@H](CCC(=O)O)NC(=O)[C@H](C)NC(=O)[C@H](CCC(=O)O)NC(=O)[C@H](Cc1c[nH]cn1)NC(=O)[C@H](CC(N)=O)NC(=O)[C@H](Cc1ccccc1)NC(=O)[C@H](CCCCN)NC(=O)[C@H](CC(=O)O)NC(=O)[C@H](CC(C)C)NC(=O)[C@H](Cc1ccccc1)NC(=O)[C@@H](NC(=O)[C@H](CCCCN)NC(=O)[C@H](C)NC(=O)[C@@H](N)CCC(N)=O)[C@@H](C)O)C(=O)N[C@@H](Cc1ccccc1)C(=O)N[C@@H](Cc1ccc(O)cc1)C(=O)N[C@@H](CCC(N)=O)C(N)=O` (H-QAKTFLDKFNHEAEDLFYQ-NH2), the “half-life of preincubation-time effect on koff^rel” value is recorded as 14 min.
